≈ marks a conversion by molar mass, not a printed value. A value given as a limit tells only on which side of the number the result lay.

In general, CC50 refers to the concentration giving 50% cytotoxicity. A lower CC50 goes with harm at low concentration. As usually defined, the IC50 is the concentration that gives 50% inhibition. Low readings indicate inhibition by little substance, high ones a need for much substance.

In assay [1] the test system is WI-38. As to the kind of experiment: Compound was tested for antiviral activity against WI-38 cell line using a plaque reduction assay; 10-100. Type of assay: functional. The note with it: Homo sapiens.
Assay [2] concerns WI-38. As to the kind of experiment: Compound was tested for antiviral activity against WI-38 cell line using a plaque reduction assay; 0.1-1. Type of assay: functional, cell-based. The note with it: Homo sapiens.
For assay [3], the system named is MRC5. As to the kind of experiment: (§1) Compound was tested for cytotoxicity by measuring inhibition of MRC-5 cell proliferation. Type of assay: functional. Conditions: Homo sapiens.
In assay [4] the test system is MRC5. Described as §1. Conditions: Homo sapiens. In kind it is functional, cell-based.
Assay [5] has as its system WI-38. As to the kind of experiment: (§2) Compound was tested for antiviral activity against WI-38 cell line using a plaque reduction assay. Type of assay: functional, cell-based. Conditions: Homo sapiens.
In assay [6] the test system is WI-38. The description is as §2. Type of assay: functional. Conditions: Homo sapiens.
Assay [7] deals with Human betaherpesvirus 5. As to the kind of experiment: Compound was tested for cytotoxicity against human cytomegalovirus (HCMV). Type of assay: functional.
The subject of assay [8] is Human betaherpesvirus 5. The assay can be described thus: Compound was tested for antiviral activity against human cytomegalovirus (HCMV). In kind it is functional, organism-based.
The subject of assay [9] is WI-38. The assay can be described thus: Compound was tested for antiviral activity against WI-38 cell line using a plaque reduction assay; 10-50. In kind it is functional. The note with it: Homo sapiens. (In a plaque reduction assay, fewer plaques than in the control indicate reduced infectivity or spread.)
Assay [10] relates to WI-38. As to the kind of experiment: Compound was tested for antiviral activity against WI-38 cell line using a plaque reduction assay; 0.5-1. Type of assay: functional, cell-based. Conditions: Homo sapiens.

Regarding `Nc1nc(O)c2ncn(C[C@@H]3CC[C@@H](P(=O)(O)O)O3)c2n1`, the 50% cytotoxic concentration (CC50) in the assay on WI-38 [1] is 10 µg/mL (≈ 31.7 µM); with MRC5 [3], 28 µg/mL (≈ 88.8 µM). In addition, the figures for the half-maximal inhibitory concentration (IC50) in the assay with WI-38 [2] and in the assay with MRC5 [4] were 0.1 µg/mL (≈ 0.317 µM) and 0.11 µg/mL (≈ 0.349 µM), respectively.
In the assay on WI-38 [5], `Nc1ncc2ncn(C[C@@H]3CC[C@H](P(=O)(O)O)O3)c2n1` returned an IC50 of 100 µg/mL (≈ 334 µM). Further, the 50% cytotoxic concentration (CC50) in the assay with WI-38 [6] is greater than 100 µg/mL.
As for `Nc1nc(O)c2ncn(C[C@@H]3CO[C@H](P(=O)(O)O)O3)c2n1`, in the assay with Human betaherpesvirus 5 [7], the CC50 is greater than 100 µg/mL. In the assay on Human betaherpesvirus 5 [8], this compound registered a 50% inhibitory concentration (IC50) of 45 µg/mL (≈ 142 µM).
Compound `Nc1nc(O)c2ncn(C[C@H]3CC[C@H](P(=O)(O)O)O3)c2n1` registered a half-maximal inhibitory concentration (IC50) with WI-38 [5] greater than 10 µg/mL. In the assay on WI-38 [6], this compound yielded a CC50 greater than 100 µg/mL.
In the case of `Nc1nc(N)c2ncn(C[C@@H]3CC[C@H](P(=O)(O)O)O3)c2n1`, the IC50 in the assay on WI-38 [5] was greater than 50 µg/mL. The compound also returned a half-maximal cytotoxic concentration (CC50) in the assay with WI-38 [6] greater than 100 µg/mL.
On to `Nc1nc(O)c2ncn(C[C@@H]3CC[C@H](P(=O)(O)O)O3)c2n1`, for which the values for the CC50 with WI-38 [9] and in the assay with MRC5 [3] were 10 µg/mL (≈ 31.7 µM) and greater than 10 µg/mL, respectively. For the same compound, the concentration for half-maximal inhibition (IC50) is 0.5 µg/mL (≈ 1.59 µM) with WI-38 [10] and 1.6 µg/mL (≈ 5.08 µM) with MRC5 [4].
Take `Nc1nc(N)c2ncn(C[C@H]3CC[C@H](P(=O)(O)O)O3)c2n1`: the IC50 in the assay with WI-38 [5] is greater than 50 µg/mL. In the assay with WI-38 [6], the CC50 was greater than 100 µg/mL.
On to `Nc1nc(N)c2ncn(C[C@@H]3CC[C@@H](P(=O)(O)O)O3)c2n1`, for which the half-inhibitory concentration (IC50) in the assay with WI-38 [5] worked out at 50 µg/mL (≈ 159 µM). The compound also displayed a half-maximal cytotoxic concentration (CC50) with WI-38 [6] greater than 100 µg/mL.
With `Nc1ccn(C[C@@H](CO)OCP(=O)(O)O)c(=O)n1.O.O` [CIDOFOVIR], the 50% cytotoxic concentration (CC50) stood at 10 µg/mL in the assay on WI-38 [9] and 19 µg/mL in the assay with MRC5 [3]. In addition, the half-maximal inhibitory concentration (IC50) with WI-38 [2] turned out to be 0.1 µg/mL; with MRC5 [4], 0.04 µg/mL.
As to `Nc1nc2c(ncn2COC(CO)CO)c(=O)[nH]1` [GANCICLOVIR], the half-maximal cytotoxic concentration (CC50) with MRC5 [3] was greater than 100 µg/mL. For the same compound, half-maximal inhibition in the assay on MRC5 [4] (IC50) was put at 2.1 µg/mL (≈ 8.23 µM).
On to `Nc1nc(O)c2ncn(C[C@H]3CC[C@@H](P(=O)(O)O)O3)c2n1`, for which the IC50 in the assay on WI-38 [5] was greater than 10 µg/mL. The 50% cytotoxic concentration (CC50) with WI-38 [6] stood at 100 µg/mL (≈ 317 µM).
As for `Nc1nc(N)c2ncn(C[C@H]3CC[C@@H](P(=O)(O)O)O3)c2n1`, in the assay with WI-38 [5], the 50% inhibitory concentration (IC50) was greater than 50 µg/mL. The 50% cytotoxic concentration (CC50) in the assay with WI-38 [6] is greater than 100 µg/mL.

The values are drawn from ChEMBL document CHEMBL1130711, “Identification of novel nucleotide phosphonate analogs with potent anti-HCMV activity” (Bioorg Med Chem Lett, 1998).
